Tests used:
[1] = Distribution of Perfluoro-compound in Organs; type: in vivo, Wister-strain male rats; conditions: 4 g/kg into the tail vein, male rats
From the text: The content of perfluoro-N-cyclohexylpyrrolidine uptake in each organ 1, 2 and 4 weeks and 3 months after the administration are shown in Table 5.

Acute Toxicity Test = type: in vivo, Wister-strain male rats; conditions: emulsion i.v., 100 ml/kg-body weight, observed one week, male rats
Protocol: The acute toxicity test on the preparations of the present invention was carried out using the preparations of the present invention shown in Table 4 which had been physiologically isotonized. The test animals used were Wister-strain male rats (weighing 100-120 g).
The results are such that with either emulsion containing perfluoro-N-cyclohexylprrolidine or perfluoro-N-(3'-methylcyclohexyl)pyrrolidine, thre was no death case at 100 ml/kg-body weight and thus their toxicity are very small.

Row | Compound | adverse influence on the liver or spleen organ [1] | uptake by the reticulo-endothelial organs and disappearance [1] | Residual Rate of perfluoro-compound ([1]; Liver, 1 week after administration) [%] | Residual Rate of perfluoro-compound ([1]; Liver, 2 weeks after administration) [%] | Residual Rate of perfluoro-compound ([1]; Liver, 3 months after administration) [%] | Residual Rate of perfluoro-compound ([1]; Liver, 4 weeks after administration) [%] | Residual Rate of perfluoro-compound ([1]; Spleen, 1 week after administration) [%] | Residual Rate of perfluoro-compound ([1]; Spleen, 2 weeks after administration) [%] | Residual Rate of perfluoro-compound ([1]; Spleen, 3 months after administration) [%] | Residual Rate of perfluoro-compound ([1]; Spleen, 4 weeks after administration) [%] | half-life ([1]; rat, in vivo, iv, 4000 mg/kg, calculated) [days] | death cases (Acute Toxicity Test) | toxicity (Acute Toxicity Test)
1 | FC1(F)N(C2(F)C(F)(F)C(F)(F)C(F)(F)C(F)(F)C2(F)F)C(F)(F)C(F)(F)C1(F)F [Example 1, perfluoro-N-cyclohexylpyrrolidine] | no evidence of adverse influence on the liver or spleen organ | taken up in greater amounts by the reticulo-endothelial organs shortly after the administration, but soon disappeared rapidly | 21.23 | 13.63 | 0.24 | 4.98 | 12.33 | 10.49 | 0.51 | 8.52 | 16 | no death case | very small
2 | FC(F)(F)C1(F)C(F)(F)C(F)(F)C(F)(F)C(F)(N2C(F)(F)C(F)(F)C(F)(F)C2(F)F)C1(F)F (stereo not drawn) [Example 38, perfluoro-N-(3'-methylcyclohexyl)pyrrolidine] |  |  |  |  |  |  |  |  |  |  |  | no death case | very small

— patent US4534978A, “Perfluorocycloamines” (The Green Cross Corporation, priority 1984, dated 1985)
